Reference: PMC6099102, “Effect of the Nature of Donor Atoms on the Thermodynamic, Kinetic and Relaxation Properties of Mn(II) Complexes Formed With Some Trisubstituted 12-Membered Macrocyclic Ligands” (Frontiers in Chemistry, 2018)

Experiment: Stability and protonation constants and pMn of the Mn(II) complexes (pH-potentiometry and/or 1H relaxometry)
Format: physicochemical
Settings: I = 0.15 M NaCl, 25 °C; for pMn: calculated at pH = 7.4, cM = cL = 10^−5 M; for log KMLH: protonation constant of the Mn(II) complex
Method: The concentration of the ligand solutions was determined by pH-potentiometric titration in the presence and absence of an excess (5–10 fold) of MnCl2. For determining the protonation constants of the investigated ligands, pH-potentiometric titrations were made by means of 0.2 M standardized NaOH in 2 and 3 mM ligand solutions in the pH-range of 1.75–11.85. All equilibrium measurements were performed at a constant 0.15 M NaCl ionic strength at 25 °C. The protonation and the stability constants of the Mn(II) complexes were determined by pH-potentiometric titrations (DOTP, DO3A, PCTA, ODO3A, DO3P) while owing to the slow formation rates of Mn(II) complexes formed with amide type ligands, the stability constants of DOTAM, DOTMA, DO3AM^H, PC3AM^H, PC3AM^Gly, PC3AM^Pip complexes were determined by out-of-cell pH-potentiomertry in combination with ^1H relaxometry. The metal-to-ligand concentration ratio in the solutions was 1:1. For the calculation of protonation constants of the ligands and the log KMnL and log KMnLHi values of the complexes, mL–pH data pairs (50–180), obtained in the pH range of 1.75–11.85 or r1obs-pH data pairs (10–15 batch samples) obtained in the pH range of 2–4.5 were used (the samples were equilibrated for 4–7 days). The equilibrium constants characterizing the deprotonation that occurs at basic pH were determined from the data obtained via direct pH-potentiometric titrations performed on the pre-formed complexes.
The pH-potentiometric titrations were carried out with a Methrohm 888 Titrando titration workstation using a Metrohm-6.0233.100 combined electrode. The samples (6.00 mL) were thermostated at 25 °C. The samples were stirred and kept under inert gas (N2) to avoid the effect of CO2. KH-phthalate (pH = 4.005) and borax (pH = 9.177) buffers were used for the pH-calibration. The method proposed by Irving et al. was used for the calculation of H^+ concentrations from the measured pH values (Irving et al., [1967]). A 0.01 M HCl (I = 0.15 M set with NaCl) solution was titrated with standardized NaOH solution of known concentration (approx. 0.2 M). The correction factor obtained as difference of calculated pH and measured pH values was used to calculate the [H^+] in the samples. The ionic product of water was determined from the same titrations (HCl/NaOH) from the data collected in the pH range of 11.20–11.85.
The relaxometric data were collected using a Bruker Minispec MQ20 NMR relaxometer. […] A datapoint plotted on figures represents an average of 5–6 T1 measurements (Figures S3–S9 in Supplementary Material). The data were fitted by using the molar r1p relaxivity value of the MnCl2 ([…] at 0.49 T and 25 °C). The equilibrium constants were calculated using the PSEQUAD program (Zékány and Nagypál, [1985]).
In order to gain information on the thermodynamic stability of the Mn(II) complexes, samples containing the metal and ligand in 1 to 1 molar ratio were studied by pH potentiometry or ^1H-relaxometry and in some cases by a combination of the two methods. The titration data were fitted by assuming the existence of [M(L)] and some protonated species ([M(HiL)]) at lower pH values. In some cases to fit the data obtained at higher pH, the formation of ternary hydroxido complexes ([M(L)(OH)]) were also included in the equilibrium model. The stability constants (KML) and the various protonation forms (KMHiL) of ML metal chelates are defined by Equations (3)–(5). However, a comparison of the stabilities of different complexes solely on the basic of their stability constants might be misleading because of the differences in ligand basicities. […] The pMn value accounts for the effect of proton competition (ligand basicity and complex protonation) on the stability constant essentially offering the same information as the conditional stability constant. Higher pMn values indicate a higher chelate stability at specified conditions. […]

[1] = stability constant of the Mn(II) complex by 1H-relaxometry
[2] = stability constant of the Mn(II) complex

| SMILES | pMn | log KMLH | log KML [1] | log KML [2] | log KMLOH (ternary hydroxido complex of Mn(II)) | log KMHLH (second protonation constant of the Mn(II) complex) | log KMH2LH (third protonation constant of the Mn(II) complex) |
| --- | --- | --- | --- | --- | --- | --- | --- |
| O=C(O)CN1CCN(CC(=O)O)Cc2cccc(n2)CN(CC(=O)O)CC1 [PCTA] | 9.74 | 1.96(1) | 16.64 (7) | 16.83 (1) |  |  |  |
| NC(=O)CN1CCN(CC(N)=O)Cc2cccc(n2)CN(CC(N)=O)CC1 [PC3AM^H] | 7.77 |  | 11.78 (8) | 11.94(3) | 10.90 (4) |  |  |
| O=C(O)CN1CCNCCN(CC(=O)O)CCN(CC(=O)O)CC1 [DO3A] | 8.66 | 4.26 (2) |  | 16.55 (4) |  |  |  |
| O=P(O)(O)CN1CCNCCN(CP(=O)(O)O)CCN(CP(=O)(O)O)CC1 [DO3P] | 6.43 | 8.06 (2) |  | 17.45 (2) |  | 7.05 (1) | 5.31 (2) |
| O=C(CN1CCN(CC(=O)N2CCCCC2)Cc2cccc(n2)CN(CC(=O)N2CCCCC2)CC1)N1CCCCC1.[Mn+2] [[Mn(PC3AM^Pip)]^2+] | 8.86 |  |  |  |  |  |  |
